Data from patent US20230285402A1, “Compositions and Methods of Modulating Short-Chain Dehydrogenase Activity” (BOARD OF REGENTS OF THE UNIVERSITY OF TEXAS SYSTEM, priority 2013, published 2023).
Where two headings read alike, the source gives them in different places.

Tests used:
recombinant 15-PGDH [1] = molecular target: T1, recombinant 15-PGDH (Homo sapiens (Human), UniProt P15428); assay: Inhibition of enzymatic activity of recombinant 15-PGDH in vitro (NADH generation); assay type: biochemical
T1 sequence (P15428 whole entry): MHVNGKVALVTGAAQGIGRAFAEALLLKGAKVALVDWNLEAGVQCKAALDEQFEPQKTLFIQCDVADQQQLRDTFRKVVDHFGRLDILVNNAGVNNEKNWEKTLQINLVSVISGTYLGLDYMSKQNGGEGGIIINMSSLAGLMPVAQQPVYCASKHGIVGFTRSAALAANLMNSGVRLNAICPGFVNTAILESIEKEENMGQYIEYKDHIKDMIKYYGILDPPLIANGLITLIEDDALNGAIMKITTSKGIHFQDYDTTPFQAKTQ

bone marrow = assay: Hematopoietic colonies from wild-type mouse bone marrow treated ex vivo; assay type: cell-based; conditions: 1 uM, ex vivo on ice 2 hours
Source text: Treated marrow is again then plated into methylcellulose for counting of hematopoietic colonies.

A549 cells [2] = assay: PGE2 in medium of IL1-beta stimulated A549 cells; assay type: cell-based; conditions: for rank of PGE2 level in medium: 100 nM drug; for induction of PGE2 compared with SW033291: 4 nM to 2500 nM
15-PGDH mRNA = 15-PGDH mRNA by real-time PCR in colon cancer cell lines; assay type: cell-based; conditions: treated colon cancer cell lines
Source text: In these studies parental cell lines (not containing the 15-PGDH-luciferase reporter) are employed.

recombinant 15-PGDH [3] = molecular target: T1, recombinant 15-PGDH; assay: Melting temperature shift of recombinant 15-PGDH (SYPRO Orange); assay type: binding; conditions: for melting temperature: 20 uM compound
[4] = tested on: 15-PGDH-luciferase fusion reporter in V9m, LS174T and V503 cells; assay: 15-PGDH-luciferase fusion reporter induction in colon cancer cell lines; assay type: cell-based; conditions: for luciferase activity, in words: V9m, LS174T, V503; for Concentration for Full Cell Line Reporter Induction: maximal induction of reporter
[5] = tested on: cell numbers in a cell culture assay; assay: Toxicity in cell culture assay (decrease of cell numbers); assay type: cell-based; conditions: concentration needed to decrease cell numbers
Method: Time to inhibition refers to the time needed to inhibit the generation of NADH by 15-PGDH from the moment with drug is added into the reaction mix. Delta Tm refers to the shift in melting temperature of recombinant 15-PGDH in the presence of drug (with cofactor NADH also present). Concentration of Full Cell Line Reporter Induction refers to the concentration of drug that needs to be added to reporter cell line to achieve maximal induction of the 15-PGDH-luciferase gene fusion reporter cassette, as measured by luciferase assays. Hepatocyte stability refers to the half-life of compound in the presence of hepatocytes in culture. Toxicity refers to the concentration of compound needed to decrease cell numbers in a cell culture assay.

A549 cells [6] = assay: Cellular toxicity by CellTiter-Glo; assay type: cell-based; conditions: concentrations of up to 10 μM; 24 hours
Method: FIGS. 38(A-C) show assays of cellular toxicity on A549 cells at 24 hours of 15-PGDH inhibitors as assayed by CellTiter-Glo measurement.

mice = assay: Homing of CFSE labeled donor bone marrow cells in lethally irradiated mice; assay type: in vivo, mouse
Method: Drugs are administered following radiation, following the transplant, and again at 8 hours after the transplant.

[7] = tested on: PGE2 in colon, bone marrow, liver, lung; assay: PGE2 in mouse tissues after IP injection; assay type: in vivo; conditions: after IP injection
Method: Shown is measurement by Elisa of PGE2 (ng PGE2/mg of tissue protein) from 4 mouse tissues: lung, liver, colon and bone marrow. […] Tissues were harvested for PGE2 assay at either 2 hour (2 h) or 3 hour (3 h) time points following drug injection.

[8] = read-out: Enzyme Inhibitor IC50 (nM) at 5 nM 15-PGDH, 5 nM recombinant human 15-PGDH

4-((3-amino-4-phenyl-6-(thiophen-2-yl)thieno[2,3-b]pyridin-2-yl)sulfonyl)butyl acetate [SW209128]
IC50 (recombinant 15-PGDH [1]; [8]): 4910 nM

CCCCC[C@H](O)/C=C/[C@H]1[C@H](O)CC(=O)[C@@H]1C/C=C\CCCC(=O)O [PGE2]
increase in colonies compared with SW033291 treated marrow, in words (bone marrow): lesser increase

CS(=O)(=O)c1sc2nc(-c3cccs3)cc(-c3ccccc3)c2c1N [SW033290]
IC50 (recombinant 15-PGDH [1]; [8]): 525 nM

COc1ccc(OC)c(N(CC(=O)Nc2cccnc2)S(=O)(=O)c2ccccc2)c1 [SW054384]
PGE2 level (A549 cells [2]; compound from 24 hours before IL1-beta, maintained next 26 hours): lower level of PGE2
15-PGDH mRNA levels (15-PGDH mRNA): do not in general alter 15-PGDH mRNA levels
direct binding to 15-PGDH, in words (recombinant 15-PGDH [3]; melting temperature shift, cofactor 10 μM and 100 μM): cannot be demonstrated to bind
concentration of maximum activity [4]: 6.25 µM
luciferase activity, in words [4]: increase luciferase activity

O=C(c1ccc2nc(-c3ccccc3)c(-c3ccccc3)nc2c1)N1CCCCC1 [SW145753]
15-PGDH activity in cells as reflected in PGE2 levels (A549 cells [2]; IL1-beta 23 hours, compound for last 5 hours): clear inhibition of 15-PGDH activity
15-PGDH mRNA levels (15-PGDH mRNA): do not in general alter 15-PGDH mRNA levels
luciferase activity, in words [4]: increase luciferase activity

CCCC[S+]([O-])c1sc2nc(-c3cccs3)ccc2c1N (stereo not shown) [SW206980]
highest PGE2 level in medium (A549 cells [2]; IL-1β 16 h, then compound 8 h): 2500 pg/mL
Toxicity [5]: >7.5 µM
effect on CellTitre-Glo levels (A549 cells [6]): No effect

CCCC[S+]([O-])c1sc2nc(-c3nccs3)ccc2c1N (stereo not shown) [SW206992]
concentration at which maximal effect on PGE2 is attained (A549 cells [2]; IL-1β 16 h, then compound 8 h): 2.5 µM
highest PGE2 level in medium (A549 cells [2]; IL-1β 16 h, then compound 8 h): 2100 pg/mL
Δ Tm (NADH) (recombinant 15-PGDH [3]): 19 °C
melting temperature (recombinant 15-PGDH [3]; 10 μM 15-PGDH, NAD(+) 100 μM, control 49): 59 degrees
melting temperature (recombinant 15-PGDH [3]; 10 uM 15-PGDH, NADH 100 uM, control 55): 68.5 degrees
IC50 (recombinant 15-PGDH [1]; Table 2 summary, read-out: IC50): 1.41 nM
IC50 (recombinant 15-PGDH [1]; [8]): 1.41 nM
Time to inhibition (10 nM) (recombinant 15-PGDH [1]; time to inhibit NADH generation after drug is added, 10 nM): ~2 min
concentration needed to induce maximal reporter induction ([4]; exposure for 24 hours): ≥ 1000 nM
Concentration for Full Cell Line Reporter Induction [4]: >1 µM
Toxicity [5]: >7.5 µM
effect on CellTitre-Glo levels (A549 cells [6]): No effect

CCCC[S+]([O-])c1sc2nc(-c3ccccc3)nc(-c3ccccc3)c2c1N (stereo not shown) [SW208065]
Δ Tm (NADH) (recombinant 15-PGDH [3]; shift in melting temperature, cofactor NADH present): 13 °C
Concentration for Full Cell Line Reporter Induction [4]: ~0.1 µM

CCCC[S+]([O-])c1sc2nc(-c3nccs3)cc(-c3ccccc3)c2c1N (stereo not shown) [SW208066]
rank of PGE2 level in medium (A549 cells [2]): highest levels of PGE2

CCCC[S+]([O-])c1sc2nc(-c3cccs3)nc(-c3ccccc3)c2c1N (stereo not shown) [SW208067]
rank of PGE2 level in medium (A549 cells [2]): highest levels of PGE2

CCCCSc1ncccc1N [SW208068]
IC50 (recombinant 15-PGDH [1]; [8]): > 7500 nM

CCCC[S+]([O-])c1ncccc1N (stereo not shown) [SW208070]
IC50 (recombinant 15-PGDH [1]; [8]): > 7500 nM

CCCC[S+]([O-])c1sc2nc(-c3cccs3)cc(-c3ccc(Br)cc3)c2c1N (stereo not shown) [SW208199]
IC50 (recombinant 15-PGDH [1]; [8]): 2.9 nM

CCCCSc1cc2ccc(-c3ccccc3)nc2s1 [SW208430, 2-(butylthio)-6-phenylthieno[2,3-b]pyridine]
IC50 (recombinant 15-PGDH [1]; [8]): > 2500 nM

CCCC[S+]([O-])c1cc2ccc(-c3ccccc3)nc2s1 (stereo not shown) [SW208432, 2-(butylsulfinyl)-6-phenylthieno[2,3-b]pyridine]
IC50 (recombinant 15-PGDH [1]; [8]): 3.53 nM

CCCCS(=O)(=O)c1cc2ccc(-c3ccccc3)nc2s1 [SW208434]
IC50 (recombinant 15-PGDH [1]; [8]): > 2500 nM

CCCCSc1sc2nc(-c3ccccc3)ccc2c1N [SW208435, 2-(butylthio)-6-phenylthieno[2,3-b]pyridin-3-amine]
IC50 (recombinant 15-PGDH [1]; [8]): > 2500 nM

CCCC[S+]([O-])c1sc2nc(-c3cccs3)cc(C)c2c1N (stereo not shown) [SW208488, 2-(butylsulfinyl)-4-methyl-6-(thiophen-2-yl)thieno[2,3-b]pyridin-3-amine]
IC50 (recombinant 15-PGDH [1]; [8]): 1.43 nM

CCCCSc1nc2nc(-c3cccs3)ccc2[nH]1 [SW208494, 2-(butylthio)-5-(thiophen-2-yl)-3H-imidazo[4,5-b]pyridine]
IC50 (recombinant 15-PGDH [1]; [8]): > 7500 nM

CC(C)[S+]([O-])c1sc2nc(-c3nccs3)cc(-c3cccnc3)c2c1N (stereo not shown) [SW208778]
IC50 (recombinant 15-PGDH [1]; [8]): 3.99 nM

CCCC[S+]([O-])c1sc2nc(-c3nccs3)c(C(=O)OCC)c(-c3ccc(Br)cc3)c2c1N (stereo not shown) [SW209123, Ethyl 3-amino-4-(4-bromophenyl)-2-(butylsulfinyl)-6-(thiazol-2-yl)thieno[2,3-b]pyridine-5-carboxylate]
IC50 (recombinant 15-PGDH [1]; [8]): 40.8 nM

CCCC[S+]([O-])c1sc2nc(-c3nccs3)cc(-c3nccs3)c2c1N (stereo not shown) [SW209124, 2-(butylsulfinyl)-4,6-di(thiazol-2-yl)thieno[2,3-b]pyridin-3-amine]
induction of PGE2 compared with SW033291 (A549 cells [2]): increased activity relative to SW033291

CCCC[S+]([O-])c1sc2nc(-c3nccs3)cc(-c3nccn3C)c2c1N (stereo not shown) [SW209125, 2-(butylsulfinyl)-4-(1-methyl-1H-imidazol-2-yl)-6-(thiazol-2-yl)thieno[2,3-b]pyridin-3-amine]
induction of PGE2 compared with SW033291 (A549 cells [2]): increased activity relative to SW033291

CC(=O)OCCCC[S+]([O-])c1sc2nc(-c3cccs3)cc(-c3ccccc3)c2c1N (stereo not shown) [SW209129, 4-((3-amino-4-phenyl-6-(thiophen-2-yl)thieno[2,3-b]pyridin-2-yl)sulfinyl)butyl acetate]
IC50 (recombinant 15-PGDH [1]; [8]): 41.5 nM

Nc1c([S+]([O-])CCCCO)sc2nc(-c3cccs3)cc(-c3ccccc3)c12 (stereo not shown) [SW209271, 4-((3-amino-4-phenyl-6-(thiophen-2-yl)thieno[2,3-b]pyridin-2-yl)sulfinyl)butan-1-ol]
IC50 (recombinant 15-PGDH [1]; [8]): 34.2 nM

CC(=O)OCCCS(=O)(=O)c1sc2nc(-c3cccs3)cc(-c3ccccc3)c2c1N [SW209272, 3-((3-amino-4-phenyl-6-(thiophen-2-yl)thieno[2,3-b]pyridin-2-yl)sulfonyl)propyl acetate]
IC50 (recombinant 15-PGDH [1]; [8]): 530 nM

CC(=O)OCCC[S+]([O-])c1sc2nc(-c3cccs3)cc(-c3ccccc3)c2c1N (stereo not shown) [SW209273, 3-((3-amino-4-phenyl-6-(thiophen-2-yl)thieno[2,3-b]pyridin-2-yl)sulfinyl)propyl acetate]
IC50 (recombinant 15-PGDH [1]; [8]): 21.6 nM

CC(C)[S+]([O-])c1sc2nc(-c3nccs3)cc(-c3nccn3C)c2c1N (stereo not shown) [SW209279, 2-(isopropylsulfinyl)-4-(1-methyl-1H-imidazol-2-yl)-6-(thiazol-2-yl)thieno[2,3-b]pyridin-3-amine]
IC50 (recombinant 15-PGDH [1]; [8]): 4.18 nM

CCC[S+]([O-])c1sc2nc(-c3nccs3)cc(-c3nccn3C)c2c1N (stereo not shown) [SW209280, 4-(1-methyl-1H-imidazol-2-yl)-2-(propylsulfinyl)-6-(thiazol-2-yl)thieno[2,3-b]pyridin-3-amine]
IC50 (recombinant 15-PGDH [1]; [8]): 3.73 nM

Nc1c([S+]([O-])CCCCCl)sc2nc(-c3cccs3)cc(-c3ccccc3)c12 (stereo not shown) [SW209329, 2-((4-chlorobutyl)sulfinyl)-4-phenyl-6-(thiophen-2-yl)thieno[2,3-b]pyridin-3-amine]
IC50 (recombinant 15-PGDH [1]; [8]): 4.36 nM

CCCCS(=O)(=O)c1sc2nc(-c3nccs3)cc(-c3ccc(CO)cc3)c2c1N [SW209333]
IC50 (recombinant 15-PGDH [1]; [8]): > 2500 nM

CCCC[S+]([O-])c1sc2nc(-c3nccs3)cc(-c3cnc(C)n3C)c2c1N (stereo not shown) [SW209415, 2-(butylsulfinyl)-4-(1,2-dimethyl-1H-imidazol-5-yl)-6-(thiazol-2-yl)thieno[2,3-b]pyridin-3-amine]
share of 15-PGDH inhibitory activity due to the (+) optical isomer (recombinant 15-PGDH [1]): at least 98%
increase of homed donor cells in recipient bone marrow (mice; 10 mg/kg IP, FIG. 140): approximately 2.5 fold

CCCC[S+]([O-])CSc1nc(-c2nccs2)cc(-c2nccn2C)c1C#N (stereo not shown) [SW209427]
IC50 (recombinant 15-PGDH [1]; [8]): 1480 nM

CCCCC(C)(C)[C@H](O)/C=C/[C@H]1[C@H](O)CC(=O)[C@@H]1C/C=C\CCCC(=O)O [dmPGE2, 16,16-dimethyl PGE2]
increase in colonies compared with SW033291 treated marrow, in words (bone marrow): slightly greater increase

COc1ccc2c(c1)c(CC(=O)O)c(C)n2C(=O)c1ccc(Cl)cc1 [indomethacin, reference compound]
effect of co-treatment on the homing effect of SW033291 (mice; with SW033291 10 mg/kg IP): near completely blocked

(+) SW209415
time of peak PGE2 [7]: 3 h

(−) SW209415
IC50 (recombinant 15-PGDH [1]; FIG. 135, read-out: IC50): 164 nM
